Test results reported in publication PMC3399817 (PLoS ONE, 2012).

Legend:
[1] = target: T1, ABL1(F317I)-phosphorylated (Homo sapiens, UniProt P00519, F317I); assay: KINOMEscan; type: binding; details: 1 uM
T1 construct: purchased Ambit KINOMEscan (DiscoverX)
Method in brief: (§1)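 First-pass selectivity screen: compound at 1 μM, endpoint is whether substrate binding to each kinase is suppressed.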

[2] = target: T2, CAMK2B (Homo sapiens, UniProt Q13554); assay: KINOMEscan; type: binding; details: 1 uM
T2 construct: purchased Ambit KINOMEscan (DiscoverX)
Method in brief: as §1

[3] = target: T3, CDK5 (Homo sapiens, UniProt Q00535); assay: KINOMEscan; type: binding; details: CDK5, 1 uM
T3 construct: purchased Ambit KINOMEscan (DiscoverX)
Method in brief: as §1

[4] = target: T4, CLK1 (Homo sapiens, UniProt P49759); assay: KINOMEscan; type: binding; details: CLK1, 1 uM
T4 construct: purchased Ambit KINOMEscan (DiscoverX)
Method in brief: as §1

[5] = target: T5, CSNK1A1L (Homo sapiens, UniProt Q8N752); assay: KINOMEscan; type: binding; details: 1 uM
T5 construct: purchased Ambit KINOMEscan (DiscoverX)
Method in brief: as §1

[6] = target: T6, DCAMKL2 (Homo sapiens, UniProt Q8N568); assay: KINOMEscan; type: binding; details: DCAMKL2, 1 uM
T6 construct: purchased Ambit KINOMEscan (DiscoverX)
Method in brief: as §1

[7] = target: T7, EGFR(L858R,T790M) (Homo sapiens, UniProt P00533, L858R/T790M); assay: KINOMEscan; type: binding; details: 1 uM
T7 construct: purchased Ambit KINOMEscan (DiscoverX)
Method in brief: as §1

[8] = target: T8, EGFR(L861Q) (Homo sapiens, UniProt P00533, L861Q); assay: KINOMEscan; type: binding; details: 1 uM
T8 construct: purchased Ambit KINOMEscan (DiscoverX)
Method in brief: as §1

[9] = target: T9, EIF2AK1 (Homo sapiens, UniProt Q9BQI3); assay: KINOMEscan; type: binding; details: EIF2AK1, 1 uM
T9 construct: purchased Ambit KINOMEscan (DiscoverX)
Method in brief: as §1

[10] = target: T10, EPHA7 (Homo sapiens, UniProt Q15375); assay: KINOMEscan; type: binding; details: EPHA7, 1 uM
T10 construct: purchased Ambit KINOMEscan (DiscoverX)
Method in brief: as §1

[11] = target: T11, FLT3(R834Q) (Homo sapiens, UniProt P36888, R834Q); assay: KINOMEscan; type: binding; details: 1 uM
T11 construct: purchased Ambit KINOMEscan (DiscoverX)
Method in brief: as §1

[12] = target: T12, KIT(D816H) (Homo sapiens, UniProt P10721, D816H); assay: KINOMEscan; type: binding; details: 1 uM
T12 construct: purchased Ambit KINOMEscan (DiscoverX)
Method in brief: as §1

[13] = target: T13, MTOR (Homo sapiens, UniProt P42345); assay: KINOMEscan; type: binding; details: 1 uM
T13 construct: purchased Ambit KINOMEscan (DiscoverX)
Method in brief: as §1

[14] = target: T14, NEK4 (Homo sapiens, UniProt P51957); assay: KINOMEscan; type: binding; details: NEK4, 1 uM
T14 construct: purchased Ambit KINOMEscan (DiscoverX)
Method in brief: as §1

[15] = target: T15, PFCDPK1(P.falciparum) (Plasmodium falciparum, UniProt P62344); assay: KINOMEscan; type: binding; details: 1 uM
T15 construct: purchased Ambit KINOMEscan (DiscoverX)
Method in brief: as §1

[16] = target: T16, PFPK5(P.falciparum) (Plasmodium falciparum, UniProt P61075); assay: KINOMEscan; type: binding; details: 1 uM
T16 construct: purchased Ambit KINOMEscan (DiscoverX)
Method in brief: as §1

[17] = target: T17, PIP5K2C (Homo sapiens, UniProt Q8TBX8); assay: KINOMEscan; type: binding; details: 1 uM
T17 construct: purchased Ambit KINOMEscan (DiscoverX)
Method in brief: as §1

[18] = target: T18, RIPK5 (Homo sapiens, UniProt Q6XUX3); assay: KINOMEscan; type: binding; details: RIPK5, 1 uM
T18 construct: purchased Ambit KINOMEscan (DiscoverX)
Method in brief: as §1

[19] = target: T19, S6K1 (Homo sapiens, UniProt P23443); assay: KINOMEscan; type: binding; details: S6K1, 1 uM
T19 construct: purchased Ambit KINOMEscan (DiscoverX)
Method in brief: as §1

[20] = target: T20, TRKA (Homo sapiens, UniProt P04629); assay: KINOMEscan; type: binding; details: 1 uM
T20 construct: purchased Ambit KINOMEscan (DiscoverX)
Method in brief: as §1

[21] = target: T21, YANK1 (Homo sapiens, UniProt Q8WU08); assay: KINOMEscan; type: binding; details: YANK1, 1 uM
T21 construct: purchased Ambit KINOMEscan (DiscoverX)
Method in brief: as §1

[22] = target: T22, ZAK (Homo sapiens, UniProt Q9NYL2); assay: KINOMEscan; type: binding; details: 1 uM
T22 construct: purchased Ambit KINOMEscan (DiscoverX)
Method in brief: as §1

[23] = target: T23, p38-delta (Homo sapiens, UniProt O15264); assay: KINOMEscan; type: binding; details: 1 uM
T23 construct: purchased Ambit KINOMEscan (DiscoverX)
Method in brief: as §1

[24] = target: CDC2L5 (Homo sapiens, UniProt Q14004); details: CDC2L5, 1 uM
Description: (§2) First, we used Ambit's KINOMEscan™ technology to identify those kinases that are inhibited for substrate binding by the compounds, all assayed at 1 μM. Second, we used Invitrogen's SelectScreen® Biochemical Kinase Profiling Service to determine the in vitro IC50s for the compounds against specific kinases.

[25] = target: PKNB(M.tuberculosis) (Mycobacterium tuberculosis, UniProt P9WI81); details: 1 uM
Description: as §2

[26] = system: panel of colorectal cancer cell lines; assay: Cell viability (Syto60) in a panel of colorectal cancer cell lines; type: cell-based; details: 72 hours, 3 cell lines expressing wild-type K-RAS
Description: (§3) Cell cycle analysis was performed via FACS-based propidium iodide quantification, using standard methods. To measure cell viability, cells were grown in 96-well plates in the presence or absence of drug for 72 hours, fixed with 4% paraformaldehyde, and then stained with Syto60 (Invitrogen). Plates were imaged and quantified using the LiCor Odyssey system (LiCor).
Relative cell viability was normalized to an untreated control for each cell line. Error bars represent SEM for 3 independent experiments. […] (PDF) Click here for additional data file.

[27] = target: T24, RPS6KA2(Kin.Dom.2-C-terminal) (Homo sapiens, UniProt Q15349); assay: KINOMEscan; type: binding; details: 1 uM
T24 construct: RPS6KA2(Kin.Dom.2-C-terminal); purchased Ambit KINOMEscan (DiscoverX)
Method in brief: as §1

[28] = system: HCT-116 (K-RAS^G13D/+); assay: Cell viability (Syto60); type: cell-based
Description: (§4) All colon cancer cell lines were maintained in DMEM supplemented with penicillin (100 units/mL), streptomycin (100 μg/mL), and 10% fetal bovine serum (FBS). The rectal cancer cell line (Car1) was maintained in DMEM/F12 supplemented with penicillin (100 units/mL)/streptomycin (50 μg/mL), and 5% FBS. […] The target sequences for knockdowns can be found in Table S2. In drug treatment experiments, cells were plated for 24 hours prior to exposure to drug. AZ-628 was obtained from AstraZeneca. CI-1040 was obtained from Pfizer. R406 was synthesized in the Gray laboratory. BAY61-3606 and IKK VII were purchased from EMD Biosciences. BAY derivatives were synthesized for this study.
as §3

[29] = system: colorectal cancer cells expressing mutant B-RAF (V600E) (HT-29, RKO); assay: Cell viability (Syto60); type: cell-based; details: HT-29 and RKO, 72 hours
Description: as §4, §3

[30] = system: antigen-induced airway inflammation; design: method as in PMID 12766258; details: rats ref 14; cited from earlier work
[31] = system: B cell migration; design: method as in PMID 21123826; details: mice ref 15; cited from earlier work

T1 sequence (P00519 whole entry F317I): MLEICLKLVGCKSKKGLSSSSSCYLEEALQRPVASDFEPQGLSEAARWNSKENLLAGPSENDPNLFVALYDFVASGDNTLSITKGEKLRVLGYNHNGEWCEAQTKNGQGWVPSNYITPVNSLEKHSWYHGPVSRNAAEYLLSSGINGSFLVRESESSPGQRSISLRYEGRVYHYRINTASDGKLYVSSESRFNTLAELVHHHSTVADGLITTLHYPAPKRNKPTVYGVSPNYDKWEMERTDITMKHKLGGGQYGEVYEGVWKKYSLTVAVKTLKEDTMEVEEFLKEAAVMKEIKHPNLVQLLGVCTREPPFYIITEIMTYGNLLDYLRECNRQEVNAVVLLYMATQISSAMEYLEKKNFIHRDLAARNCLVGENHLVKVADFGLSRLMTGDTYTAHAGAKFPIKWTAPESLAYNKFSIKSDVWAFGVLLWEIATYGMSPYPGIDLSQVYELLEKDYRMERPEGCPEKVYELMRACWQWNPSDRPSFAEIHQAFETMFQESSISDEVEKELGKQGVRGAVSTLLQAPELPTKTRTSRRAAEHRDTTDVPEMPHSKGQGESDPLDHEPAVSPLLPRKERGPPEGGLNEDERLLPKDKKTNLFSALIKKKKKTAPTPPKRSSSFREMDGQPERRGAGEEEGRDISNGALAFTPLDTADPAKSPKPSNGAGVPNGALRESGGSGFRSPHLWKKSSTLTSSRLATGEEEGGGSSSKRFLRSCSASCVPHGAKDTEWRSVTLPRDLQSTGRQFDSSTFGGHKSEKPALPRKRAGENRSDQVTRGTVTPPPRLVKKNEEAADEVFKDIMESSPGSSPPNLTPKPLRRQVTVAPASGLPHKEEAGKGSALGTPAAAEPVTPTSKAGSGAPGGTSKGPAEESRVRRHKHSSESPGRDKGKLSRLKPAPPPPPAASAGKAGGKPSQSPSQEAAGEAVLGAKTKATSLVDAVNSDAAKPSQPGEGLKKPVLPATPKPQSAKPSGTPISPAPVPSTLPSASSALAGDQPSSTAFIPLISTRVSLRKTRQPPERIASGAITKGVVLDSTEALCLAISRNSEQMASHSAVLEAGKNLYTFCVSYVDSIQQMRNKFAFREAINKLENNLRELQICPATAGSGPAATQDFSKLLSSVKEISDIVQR
T7 sequence (P00533 25-1210 T790M/L858R): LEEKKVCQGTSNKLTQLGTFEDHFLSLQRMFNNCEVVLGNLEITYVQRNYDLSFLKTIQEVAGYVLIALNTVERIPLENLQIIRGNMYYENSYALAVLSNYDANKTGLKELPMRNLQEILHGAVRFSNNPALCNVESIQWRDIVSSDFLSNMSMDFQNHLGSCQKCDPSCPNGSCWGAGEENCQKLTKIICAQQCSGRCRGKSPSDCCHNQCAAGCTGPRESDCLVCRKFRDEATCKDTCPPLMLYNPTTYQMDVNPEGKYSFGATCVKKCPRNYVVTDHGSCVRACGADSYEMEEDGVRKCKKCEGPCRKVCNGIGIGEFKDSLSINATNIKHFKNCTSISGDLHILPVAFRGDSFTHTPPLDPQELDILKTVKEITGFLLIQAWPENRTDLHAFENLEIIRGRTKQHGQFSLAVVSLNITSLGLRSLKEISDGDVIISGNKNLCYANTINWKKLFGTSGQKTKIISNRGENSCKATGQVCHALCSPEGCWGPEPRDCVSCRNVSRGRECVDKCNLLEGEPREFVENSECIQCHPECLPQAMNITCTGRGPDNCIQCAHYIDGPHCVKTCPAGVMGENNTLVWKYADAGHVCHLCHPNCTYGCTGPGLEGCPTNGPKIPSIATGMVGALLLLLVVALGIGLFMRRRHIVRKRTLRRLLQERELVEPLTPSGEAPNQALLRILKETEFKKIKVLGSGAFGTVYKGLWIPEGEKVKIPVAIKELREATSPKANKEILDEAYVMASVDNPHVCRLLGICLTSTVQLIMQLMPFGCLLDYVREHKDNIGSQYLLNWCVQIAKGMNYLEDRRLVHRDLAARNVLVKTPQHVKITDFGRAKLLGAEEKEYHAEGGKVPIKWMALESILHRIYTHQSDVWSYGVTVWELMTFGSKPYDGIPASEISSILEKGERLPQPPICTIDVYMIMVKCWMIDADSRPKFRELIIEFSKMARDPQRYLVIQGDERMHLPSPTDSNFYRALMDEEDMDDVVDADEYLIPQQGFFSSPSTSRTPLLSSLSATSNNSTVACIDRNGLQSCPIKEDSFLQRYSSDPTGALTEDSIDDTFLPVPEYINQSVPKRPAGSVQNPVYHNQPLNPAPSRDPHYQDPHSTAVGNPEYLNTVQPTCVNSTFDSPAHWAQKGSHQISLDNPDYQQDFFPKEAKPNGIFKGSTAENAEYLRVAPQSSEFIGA
T8 sequence (P00533 25-1210 L861Q): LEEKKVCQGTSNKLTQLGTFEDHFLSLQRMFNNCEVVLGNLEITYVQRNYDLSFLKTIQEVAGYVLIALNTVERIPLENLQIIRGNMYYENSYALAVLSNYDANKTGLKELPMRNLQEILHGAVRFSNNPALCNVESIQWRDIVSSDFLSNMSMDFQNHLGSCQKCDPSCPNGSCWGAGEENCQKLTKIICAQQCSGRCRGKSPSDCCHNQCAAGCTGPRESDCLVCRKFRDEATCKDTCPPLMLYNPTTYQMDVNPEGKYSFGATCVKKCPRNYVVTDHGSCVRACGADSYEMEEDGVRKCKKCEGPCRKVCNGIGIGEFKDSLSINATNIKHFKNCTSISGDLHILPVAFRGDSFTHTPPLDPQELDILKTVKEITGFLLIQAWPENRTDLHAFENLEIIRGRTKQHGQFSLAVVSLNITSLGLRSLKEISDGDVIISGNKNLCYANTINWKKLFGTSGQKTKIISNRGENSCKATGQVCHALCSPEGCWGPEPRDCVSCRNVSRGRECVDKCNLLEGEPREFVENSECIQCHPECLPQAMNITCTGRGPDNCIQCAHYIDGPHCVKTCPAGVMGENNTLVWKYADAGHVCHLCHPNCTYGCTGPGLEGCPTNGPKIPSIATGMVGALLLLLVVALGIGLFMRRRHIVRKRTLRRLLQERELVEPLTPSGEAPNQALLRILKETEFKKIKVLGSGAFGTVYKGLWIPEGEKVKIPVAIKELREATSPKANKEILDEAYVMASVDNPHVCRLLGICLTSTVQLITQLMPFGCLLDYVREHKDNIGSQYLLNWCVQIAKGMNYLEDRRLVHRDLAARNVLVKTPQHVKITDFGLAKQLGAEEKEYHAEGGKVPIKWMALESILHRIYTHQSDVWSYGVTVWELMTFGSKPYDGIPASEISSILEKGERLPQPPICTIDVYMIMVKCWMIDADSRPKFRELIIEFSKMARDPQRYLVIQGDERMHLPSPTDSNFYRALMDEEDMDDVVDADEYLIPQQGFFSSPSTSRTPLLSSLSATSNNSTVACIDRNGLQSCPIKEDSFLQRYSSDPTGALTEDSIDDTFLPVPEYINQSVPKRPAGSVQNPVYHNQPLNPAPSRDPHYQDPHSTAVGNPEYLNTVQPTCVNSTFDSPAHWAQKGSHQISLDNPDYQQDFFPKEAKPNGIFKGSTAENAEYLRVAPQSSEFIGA
T23 sequence (O15264 whole entry): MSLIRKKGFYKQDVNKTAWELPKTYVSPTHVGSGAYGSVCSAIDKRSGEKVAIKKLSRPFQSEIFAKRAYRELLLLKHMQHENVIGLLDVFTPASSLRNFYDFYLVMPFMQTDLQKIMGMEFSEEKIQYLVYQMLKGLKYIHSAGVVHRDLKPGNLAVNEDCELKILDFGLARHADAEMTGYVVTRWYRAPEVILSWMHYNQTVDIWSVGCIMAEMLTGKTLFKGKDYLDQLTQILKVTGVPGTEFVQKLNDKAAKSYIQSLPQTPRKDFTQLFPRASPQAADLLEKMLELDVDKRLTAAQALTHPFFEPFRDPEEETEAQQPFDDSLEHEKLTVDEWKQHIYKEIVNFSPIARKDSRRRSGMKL
T10 sequence (Q15375 28-998): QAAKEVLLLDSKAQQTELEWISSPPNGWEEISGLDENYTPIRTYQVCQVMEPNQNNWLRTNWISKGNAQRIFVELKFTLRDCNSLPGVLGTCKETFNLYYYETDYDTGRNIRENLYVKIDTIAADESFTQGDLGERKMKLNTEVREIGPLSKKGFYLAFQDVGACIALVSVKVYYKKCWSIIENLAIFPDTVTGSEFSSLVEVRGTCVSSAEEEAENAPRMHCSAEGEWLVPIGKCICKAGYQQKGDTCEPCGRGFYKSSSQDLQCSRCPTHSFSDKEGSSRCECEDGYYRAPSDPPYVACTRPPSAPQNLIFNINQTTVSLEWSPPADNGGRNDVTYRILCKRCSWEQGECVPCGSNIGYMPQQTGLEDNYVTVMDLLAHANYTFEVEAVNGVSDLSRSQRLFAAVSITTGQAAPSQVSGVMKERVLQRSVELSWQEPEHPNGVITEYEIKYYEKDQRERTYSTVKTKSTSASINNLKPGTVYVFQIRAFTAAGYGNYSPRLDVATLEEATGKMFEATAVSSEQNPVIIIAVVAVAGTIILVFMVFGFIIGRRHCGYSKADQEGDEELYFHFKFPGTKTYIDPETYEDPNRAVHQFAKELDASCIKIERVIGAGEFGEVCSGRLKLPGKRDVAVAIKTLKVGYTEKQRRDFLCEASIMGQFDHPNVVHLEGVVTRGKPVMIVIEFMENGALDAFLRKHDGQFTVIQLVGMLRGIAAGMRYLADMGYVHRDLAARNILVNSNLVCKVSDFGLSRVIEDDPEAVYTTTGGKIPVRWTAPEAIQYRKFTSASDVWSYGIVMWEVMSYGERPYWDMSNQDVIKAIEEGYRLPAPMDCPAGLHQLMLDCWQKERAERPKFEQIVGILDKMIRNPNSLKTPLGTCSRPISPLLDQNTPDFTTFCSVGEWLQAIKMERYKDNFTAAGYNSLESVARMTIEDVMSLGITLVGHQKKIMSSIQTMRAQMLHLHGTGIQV

COc1ccccc1Nc1nc(-c2ccc(OC)c(OC)c2)cc2nccn12 [BAY derivative 6]
% binding compared to no inhibitor control [1]: 86%
% binding compared to no inhibitor control [2]: 100%
% binding compared to no inhibitor control [3]: 100%
% binding compared to no inhibitor control [4]: 100%
% binding compared to no inhibitor control [5]: 100%
% binding compared to no inhibitor control [6]: 100%
% binding compared to no inhibitor control [7]: 85%
% binding compared to no inhibitor control [8]: 68%
% binding compared to no inhibitor control [9]: 88%
% binding compared to no inhibitor control [10]: 100%
% binding compared to no inhibitor control [11]: 100%
% binding compared to no inhibitor control [12]: 61%
% binding compared to no inhibitor control [13]: 67%
% binding compared to no inhibitor control [14]: 85%
% binding compared to no inhibitor control [15]: 67%
% binding compared to no inhibitor control [16]: 100%
% binding compared to no inhibitor control [17]: 99%
% binding compared to no inhibitor control [18]: 100%
% binding compared to no inhibitor control [19]: 84%
% binding compared to no inhibitor control [20]: 98%
% binding compared to no inhibitor control [21]: 100%
% binding compared to no inhibitor control [22]: 92%
% binding compared to no inhibitor control [23]: 100%
% binding compared to no inhibitor control [24]: 88%
% binding compared to no inhibitor control [25]: 99%
cell lines expressing wild-type K-RAS that responded [26]: 0/3

COc1ccc(-c2cc3nccn3c(Nc3ncccc3C(N)=O)n2)cc1OC.Cl.Cl [BAY61-3606, 2-[7-(3,4-dimethoxyphenyl)-imidazo [1,2-c]pyrimidin-5-ylamino] nicotinamide dihydrochloride, reference compound]
% binding compared to no inhibitor control [27]: 89%
sensitivity of cells expressing mutant K-RAS (cell viability) ([28]; 72 hours, HCT-116 compared to HKe-3, normalized to DMSO): relatively sensitive
cooperation with AZ-628 (cell viability) ([28]; HCT-116, 72 hours, 1 µM AZ-628): did not cooperate
cell viability, combination of BAY61-3606 and CI-1040 [29]: cooperated to produce an enhanced response
sensitivity of cells expressing mutant B-RAF (cell viability) ([29]; single agent): sensitive
antigen-induced airway inflammation [30]: suppresses
B cell migration [31]: suppresses
